Experimental data as given in ChEMBL document CHEMBL3526086, “Identification of the oxidative and conjugative enzymes involved in the biotransformation of brivanib” (Drug Metab Dispos, 2012).

Columns and labels:
Liver cytosol [1] = test: Drug metabolism in human liver cytosol assessed as (R)-4-fluoro-5-(5-methyl-6-(2-sulfopropoxy)pyrrolo[1,2-f][1,2,4]triazin-4-yloxy)-1H-indole-2-carboxylic acid formation at 2 uM for 60 mins by LC/MS analysis in presence of PAPS; assay type: ADME
Liver cytosol [2] = test: Drug metabolism in human liver cytosol assessed as (R)-1-(4-(4-fluoro-2-(hydroxymethyl)-1H-indol-5-yloxy)-5-methylpyrrolo[1,2-f][1,2,4]triazin-6-yloxy)propane-2-sulfonic acid formation at 2 uM for 60 mins by LC/MS analysis in presence of PAPS; assay type: ADME
Liver cytosol [3] = test: Drug metabolism in human liver cytosol assessed as (R)-4-fluoro-5-(6-(2-hydroxypropoxy)-5-methylpyrrolo[1,2-f][1,2,4]triazin-4-yloxy)-1H-indole-2-carboxylic acid formation at 2 uM for 60 mins by LC/MS analysis; assay type: ADME, tissue-based
Liver cytosol [4] = test: Drug metabolism in human liver cytosol assessed as (R)-4-fluoro-5-(6-(2-hydroxypropoxy)-5-methylpyrrolo[1,2-f][1,2,4]triazin-4-yloxy)-1H-indole-2-carboxylic acid formation at 2 uM for 60 mins by LC/MS analysis in presence of NADPH; assay type: ADME
Liver microsome [5] = test: Drug metabolism in human liver microsomes assessed as (R)-4-fluoro-5-(6-(2-hydroxypropoxy)-5-methylpyrrolo[1,2-f][1,2,4]triazin-4-yloxy)-1H-indole-2-carboxylic acid formation at 2 uM for 60 mins by LC/MS analysis; assay type: ADME
Liver microsome [6] = test: Drug metabolism in human liver microsomes assessed as (R)-4-fluoro-5-(6-(2-hydroxypropoxy)-5-methylpyrrolo[1,2-f][1,2,4]triazin-4-yloxy)-1H-indole-2-carboxylic acid formation at 2 uM for 60 mins by LC/MS analysis in presence of NADPH; assay type: ADME
Liver cytosol [7] = test: Drug metabolism in human liver cytosol assessed as sulfate conjugate formation at 2 uM for 60 mins in absence of PAPS by LC/MS analysis; assay type: ADME, tissue-based; conditions: 1 h

Drug metabolism (Liver cytosol [1]): metabolite_detected | Drug metabolism (Liver cytosol [2]): metabolite_detected | Drug metabolism (Liver cytosol [3]): metabolite_detected | Drug metabolism (Liver cytosol [4]): metabolite_detected | Drug metabolism (Liver microsome [5]): metabolite_not_detected | Drug metabolism (Liver microsome [6]): metabolite_detected | Drug metabolism (Liver cytosol [7]): metabolite_not_detected
Structure (SMILES): Cc1c(OC[C@@H](C)O)cn2n[14cH]nc(Oc3ccc4[nH]c(CO)cc4c3F)c12
